Molecular target: Elongin-B/Elongin-C/von Hippel-Lindau disease tumor suppressor (Homo sapiens, UniProt P40337+Q15370+Q15369)
Test: Displacement of FAM-DEALAHyp-YIPD from 6xHis-tagged VHL (1 to 213)/elongins-B/elonginC (unknown origin) expressed in Escherichia coli BL21 after 1 min by fluorescence polarization assay

Sequence of Elongin-B/Elongin-C/von Hippel-Lindau disease tumor suppressor (P40337 whole entry, looked up): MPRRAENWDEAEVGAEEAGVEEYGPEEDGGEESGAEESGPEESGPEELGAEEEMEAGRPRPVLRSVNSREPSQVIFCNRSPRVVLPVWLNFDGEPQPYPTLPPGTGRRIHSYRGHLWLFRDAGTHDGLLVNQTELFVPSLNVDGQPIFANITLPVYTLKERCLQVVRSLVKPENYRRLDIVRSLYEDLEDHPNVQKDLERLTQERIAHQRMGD
Sequence of Elongin-B/Elongin-C/von Hippel-Lindau disease tumor suppressor (Q15369 whole entry, looked up): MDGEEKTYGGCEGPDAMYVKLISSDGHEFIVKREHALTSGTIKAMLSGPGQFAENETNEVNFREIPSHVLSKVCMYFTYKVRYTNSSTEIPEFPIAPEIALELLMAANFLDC
Sequence of Elongin-B/Elongin-C/von Hippel-Lindau disease tumor suppressor (Q15370 whole entry, looked up): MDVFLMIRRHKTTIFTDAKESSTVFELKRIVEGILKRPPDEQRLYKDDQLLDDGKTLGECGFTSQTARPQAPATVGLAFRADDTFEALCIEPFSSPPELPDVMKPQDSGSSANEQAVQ

With Cc1cc(CC(=O)N2C[C@H](O)C[C@H]2C(=O)NCc2cccc(Cl)c2)on1 the IC50 was 117 µM.
